One experiment addresses T1, AuroraA-TPX2 (Homo sapiens, UniProt O14965).
T1 construct: 20 µL of AuroraA-TPX2 KD GST; GST
T1 sequence (O14965 133-383 limits assumed): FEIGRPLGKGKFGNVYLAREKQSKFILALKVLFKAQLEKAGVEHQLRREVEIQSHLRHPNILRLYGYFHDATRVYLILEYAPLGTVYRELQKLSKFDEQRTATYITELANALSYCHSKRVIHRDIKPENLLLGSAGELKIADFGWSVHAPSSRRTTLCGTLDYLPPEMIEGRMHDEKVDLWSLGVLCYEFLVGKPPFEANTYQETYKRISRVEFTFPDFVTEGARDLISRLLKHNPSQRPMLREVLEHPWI
T1 sequence (Q9ULW0 1-43 partner limits assumed): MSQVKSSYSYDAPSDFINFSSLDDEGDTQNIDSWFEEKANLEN
In words: AuroraA-TPX2 Homogeneous Time Resolved Fluorescent (HTRF) kinase assay. It counts as biochemical. Conditions: average, read-out: AurA/TP X2_ IC50_IP (Avg). An outline of the steps: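 Aurora-A/TPX2 phosphorylates biotinylated PLK peptide (about 1 µM) with ATP for about 120 min in 60 mM HEPES pH 7.5, 10 mM MgCl2, 2 mM DTT. EDTA quench, overnight equilibration with Eu-anti-phosphoPLK antibody and SA-APC; HTRF read at 615/655 nm after 320 nm excitation.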
A general note: In TR-FRET formats the signal depends on donor and acceptor labels being close together.

The next experiment has as its target T2, AuroraB (Homo sapiens, UniProt Q96GD4).
T2 construct: 20 µL of AuroraB FL His; His
The experiment in a line: AuroraB Homogeneous Time Resolved Fluorescent (HTRF) kinase assay. The format is biochemical. Conditions: average, read-out: AurB_ _IC50_IP (Avg). The essentials:
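Full-length His-tagged AuroraB (400 pM) phosphorylates 0.1 µM biotinylated Histone H3 with 23 µM ATP (Km(app)) in HEPES pH 7.5 with Mg/Mn, about 90 min. EDTA-quenched; Eu-anti-phosphoHistoneH3 and SA-APC HTRF, 655/615 nm ratio as phosphorylation.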

The subject of experiment [1] is phosphorylation of Histone H3. The experiment in a line: HeLa cell 1-hour phospho-histone assay. The format is cell-based. Conditions: Homo sapiens, HeLa, 1 h, HeLa cells, 1 hour, average, read-out: pHH3 EC50_IP (Avg). As to the method: HeLa cell 1-hour phospho-histone assay
The purpose of this assay is to test the inhibitory effect of Aurora compounds with respect to phosphorylation of Histone H3 in the cellular context. HeLa cells (9x10^4/well) are plated in black 96-well flat-bottom tissue culture plates and incubated for 40 hours prior to compound addition. Compounds are serially diluted in DMSO, followed by dilution into MEM containing […] HEPES; 10ul/well of diluted compounds are added to cells (0.5% DMSO final). Cells are incubated for 1 hour at 37 °C in 5% CO2. Cells are then fixed with 3.7% formaldehyde for 10 minutes, washed with wash buffer (1% goat serum and 0.1% Tween 20 in PBS), then permeabilized with 0.5% Triton X in PBS for 15 minutes. After washing with wash buffer, cells are incubated with primary antibody (Upstate #06-507 anti-phospho-histone (Ser 10) antibody (pHH3) for 1 hour at 10ug/ml. After 2 washes with wash buffer, cells are incubated with secondary antibody (Molecular Probes #A11034 goat anti-rabbit Alexa-488 for 1 hour at 1ug/ml + Hoechst 33342 nuclear dye at 1ug/ml (Molecular Probes). Cells are washed 2 times with wash buffer, and buffer replaced with PBS. Plates are scanned on the Cellomics Array Scan (6 fields, ~2000 cells/well) and % of cells that are pHH3 positive were calculated using the Cellomics algorithm.

The mark [2] stands for this setting: given as numbers, unit inferred.

This is an account of results in patent EP1984353B1, “AURORA KINASE MODULATORS AND METHOD OF USE” (Amgen, Inc, priority 2006, dated 2007).

pEC50, pIC50: −log10 of the molar value. Like-named read-outs stand apart in the source and are kept apart here.

T2 sequence (Q96GD4 whole entry): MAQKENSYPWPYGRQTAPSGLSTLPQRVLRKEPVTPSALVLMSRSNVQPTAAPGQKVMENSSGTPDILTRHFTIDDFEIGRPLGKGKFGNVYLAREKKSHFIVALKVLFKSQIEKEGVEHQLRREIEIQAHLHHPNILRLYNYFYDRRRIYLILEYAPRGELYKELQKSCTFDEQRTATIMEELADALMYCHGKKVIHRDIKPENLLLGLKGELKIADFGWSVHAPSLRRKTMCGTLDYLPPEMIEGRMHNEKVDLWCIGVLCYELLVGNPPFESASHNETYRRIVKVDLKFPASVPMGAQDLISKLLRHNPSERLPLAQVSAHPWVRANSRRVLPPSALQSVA

Take `Nc1nccc(-c2cccnc2Oc2ccc(Nc3nnc(-c4ccccc4)cc3-c3ccccc3)cc2)n1` [compound 246, N-(4-((3-(2-amino-4-pyrimidinyl)-2-pyridinyl)oxy)phenyl)-4,6-diphenyl-3-pyridazinamine]: the pIC50 on AuroraA-TPX2 (given as class symbols) was 5.60 to 6.30; at AuroraB (given as class symbols), no less than 7.00. In addition, the pEC50 in experiment [1] (given as class symbols) was 5.60 to 6.30.

Turning to `Nc1nccc(-c2cccnc2Oc2ccc(Nc3nnc(-c4ccc(CCO)cc4)c4ccccc34)cc2)n1` [compound 247, 2-(4-(4-((4-((3-(2-amino-4-pyrimidinyl)-2-pyridinyl)oxy)phenyl)amino)-1-phthalazinyl)phenyl)ethanol], the pIC50 at AuroraA-TPX2 (setting [2]) is 7.70; on AuroraB (setting [2]), 8.38. For the same molecule, in experiment [1] (setting [2]), the pEC50 was 6.48.

Consider `CNc1nccc(-c2cccnc2Oc2ccc(Nc3nnc(-c4ccccc4)c4ccccc34)nc2)n1` [compound 248, N-(5-((3-(2-(methylamino)-4-pyrimidinyl)-2-pyridinyl)oxy)-2-pyridinyl)-4-phenyl-1-phthalazinamine], for which the pIC50 at AuroraA-TPX2 (setting [2]) is 6.83; at AuroraB (setting [2]), 7.96. The pEC50 in experiment [1] (setting [2]) was 6.33.

Take `Nc1nccc(-c2cccnc2Oc2ccc(Nc3nnc(-c4ccc(CO)cc4)c4ccccc34)cc2)n1` [compound 249, (4-(4-((4-((3-(2-amino-4-pyrimidinyl)-2-pyridinyl)oxy)phenyl)amino)-1-phthalazinyl)phenyl)methanol]: the pIC50 at AuroraA-TPX2 (given as class symbols) and on AuroraB (given as class symbols) was no less than 7.00 throughout. Besides, the pEC50 in experiment [1] (given as class symbols) is 6.30 to 7.00.

For the molecule `Nc1nccc(-c2cccnc2Oc2ccc(Nc3nnc(-c4ccccc4)c4ccoc34)cc2)n1` [compound 250, N-(4-((3-(2-amino-4-pyrimidinyl)-2-pyridinyl)oxy)phenyl)-4-phenylfuro[2,3-d]pyridazin-7-amine], the values for the pIC50 at AuroraA-TPX2 (setting [2]) and at AuroraB (setting [2]) were 7.52 and 7.70, respectively. In addition, in experiment [1] (setting [2]), the pEC50 is 6.76.

With `Cc1csc(-c2nnc(Nc3ccc(Oc4ncccc4-c4ccnc(N)n4)cc3)c(C)c2C)c1` [compound 259, N-(4-((3-(2-amino-4-pyrimidinyl)-2-pyridinyl)oxy)phenyl)-4,5-dimethyl-6-(4-methyl-2-thienyl)-3-pyridazinamine], the values for the pIC50 at AuroraA-TPX2 (setting [2]) and on AuroraB (setting [2]) were 8.23 and 8.55, respectively. Moreover, in experiment [1] (setting [2]), the pEC50 was 7.38.

As to `Nc1nccc(-c2cccnc2Oc2ccc(Nc3ncc(-c4ccccc4)c4ccccc34)cc2)n1` [compound 260, N-(4-((3-(2-amino-4-pyrimidinyl)-2-pyridinyl)oxy)phenyl)-4-phenyl-1-isoquinolinamine], the pIC50 was 7.48 at AuroraA-TPX2 (setting [2]) and 7.83 at AuroraB (setting [2]). Further, in experiment [1] (setting [2]), the pEC50 was 6.64.

`c1ccc(-c2nnc(Nc3ccc(Oc4nccnc4-c4ccncc4)cc3)c3ccccc23)cc1` [compound 261, 4-phenyl-N-(4-((3-(4-pyridinyl)-2-pyrazinyl)oxy)phenyl)-1-phthalazinamine]: the pIC50 on AuroraA-TPX2 (given as class symbols) and at AuroraB (given as class symbols) was 6.30 to 7.00 throughout. Further, the pEC50 in experiment [1] (given as class symbols) was 5.60 to 6.30.

For the molecule `Cc1csc(-c2cnc(Nc3ccc(Oc4ncccc4-c4ccnc(N)n4)cc3)c3ccccc23)c1` [compound 262, N-(4-((3-(2-amino-4-pyrimidinyl)-2-pyridinyl)oxy)phenyl)-4-(4-methyl-2-thienyl)-1-isoquinolinamine], the pIC50 on AuroraA-TPX2 (setting [2]) is 7.46; on AuroraB (setting [2]), 7.80. Besides, in experiment [1] (setting [2]), the pEC50 is 6.48.

Turning to `Nc1nccc(-c2cccnc2Oc2ccc(Nc3nnc(-c4ccccc4)cc3O)cc2)n1` [compound 263, 3-((4-((3-(2-amino-4-pyrimidinyl)-2-pyridinyl)oxy)phenyl)amino)-6-phenyl-4-pyridazinol], the pIC50 at AuroraA-TPX2 (given as class symbols) and on AuroraB (given as class symbols) was 5.60 to 6.30 each time. For the same molecule, the pEC50 in experiment [1] (given as class symbols) was 5.60 to 6.30.

Take `Cc1cc(Br)cnc1Nc1ccc(Oc2ncccc2-c2ccncc2)cc1` [compound 264, N-(4-(3,4'-bipyridin-2-yloxy)phenyl)-5-bromo-3-methyl-2-pyridinamine]: the pIC50 on AuroraB (given as class symbols) is 5.60 to 6.30. In addition, the pEC50 in experiment [1] (given as class symbols) was 5.60 to 6.30.

Take `Nc1nccc(-c2cccnc2Oc2ccc(Nc3nnc(C4CCCCC4)c4ccccc34)cn2)n1` [compound 274, N-(6-((3-(2-amino-4-pyrimidinyl)-2-pyridinyl)oxy)-3-pyridinyl)-4-cyclohexyl-1-phthalazinamine]: the pIC50 at AuroraA-TPX2 (given as class symbols) and on AuroraB (given as class symbols) was no less than 7.00 each time. For the same molecule, the pEC50 in experiment [1] (given as class symbols) is no less than 7.00.

Regarding `Nc1nccc(-c2cccnc2Oc2ccc(Nc3nnc(N4CCCC(F)C4)c4ccccc34)cc2)n1` (stereo not shown) [compound 278, N-(4-((3-(2-amino-4-pyrimidinyl)-2-pyridinyl)oxy)phenyl)-4-(3-fluoro-1-piperidinyl)-1-phthalazinamine], the pIC50 on AuroraA-TPX2 (setting [2]) was 7.52; at AuroraB (setting [2]) it was 8.13. Besides, the pEC50 in experiment [1] (setting [2]) was 6.55.

`CN1CCN(CCCNc2cc(-c3cccnc3Oc3ccc(Nc4nnc(-c5ccccc5)c5ccccc45)cc3)ccn2)CC1` [compound 279, N-(3-(4-methyl-1-piperazinyl)propyl)-2-((4-((4-phenyl-1-phthalazinyl)amino)phenyl)oxy)-3,4'-bipyridin-2'-amine]: the pIC50 at AuroraA-TPX2 (given as class symbols) was 6.30 to 7.00; on AuroraB (given as class symbols), no less than 7.00. Further, in experiment [1] (given as class symbols), the pEC50 was 6.30 to 7.00.

On to `Cc1cc(-c2ccccc2)nnc1Nc1ccc(Oc2ncccc2-c2ccnc(NCCCN3CCN(C)CC3)n2)nc1` [compound 280, 4-methyl-N-(6-((3-(2-((3-(4-methyl-1-piperazinyl)propyl)amino)-4-pyrimidinyl)-2-pyridinyl)oxy)-3-pyridinyl)-6-phenyl-3-pyridazinamine], for which the pIC50 at AuroraA-TPX2 (given as class symbols) and at AuroraB (given as class symbols) was no less than 7.00 in each case. Moreover, the pEC50 in experiment [1] (given as class symbols) was 6.30 to 7.00.

For `O=C1Cc2c(-c3cccnc3Oc3ccc(Nc4nnc(-c5ccccc5)c5ccccc45)cc3)ccnc2N1` [compound 281, 4-(2-((4-((4-phenyl-1-phthalazinyl)amino)phenyl)oxy)-3-pyridinyl)-1,3-dihydro-2H-pyrrolo[2,3-b]pyridin-2-one], the pIC50 was 7.69 at AuroraA-TPX2 (setting [2]) and 8.21 on AuroraB (setting [2]). In experiment [1] (setting [2]), the pEC50 is 6.77.

Turning to `Cc1cc(-c2ccccc2)nnc1Nc1ccc(Oc2ncccc2-c2ccnc3c2CC(=O)N3)cc1` [compound 282, 4-(2-((4-((4-methyl-6-phenyl-3-pyridazinyl)amino)phenyl)oxy)-3-pyridinyl)-1,3-dihydro-2H-pyrrolo[2,3-b]pyridin-2-one], the pIC50 on AuroraA-TPX2 (given as class symbols) and on AuroraB (given as class symbols) was no less than 7.00 each time. The pEC50 in experiment [1] (given as class symbols) was 6.30 to 7.00.

On to `CN(C)Cc1cccc(-c2nnc(Nc3ccc(Oc4ncccc4-c4ccnc(N)n4)cc3)c3ccccc23)c1` [compound 299, N-(4-((3-(2-amino-4-pyrimidinyl)-2-pyridinyl)oxy)phenyl)-4-(3-((dimethylamino)methyl)phenyl)-1-phthalazinamine], for which the pIC50 at AuroraA-TPX2 (given as class symbols) was 6.30 to 7.00; on AuroraB (given as class symbols) it was no less than 7.00. The pEC50 in experiment [1] (given as class symbols) is 5.60 to 6.30.

In the case of `Cc1n[nH]cc1-c1cccnc1Oc1ccc(Nc2nnc(-c3ccccc3)c3ccccc23)cc1` [compound 300, N-(4-((3-(3-methyl-1H-pyrazol-4-yl)-2-pyridinyl)oxy)phenyl)-4-phenyl-1-phthalazinamine], the pIC50 on AuroraA-TPX2 (given as class symbols) and at AuroraB (given as class symbols) was 6.30 to 7.00 each time. Further, in experiment [1] (given as class symbols), the pEC50 was 6.30 to 7.00.

`Cc1ccc(-c2nnc(Nc3ccc(Oc4ncccc4-c4c[nH]nc4N)cc3)c3ccccc23)cc1` [compound 301, N-(4-((3-(3-amino-1H-pyrazol-4-yl)-2-pyridinyl)oxy)phenyl)-4-(4-methylphenyl)-1-phthalazinamine]: the results for the pIC50 on AuroraA-TPX2 (setting [2]) and at AuroraB (setting [2]) were 8.26 and 8.51, respectively. Further, the pEC50 in experiment [1] (setting [2]) is 6.78.

In the case of `Cc1csc(-c2nnc(Nc3ccc(Oc4ncccc4-c4ccnc(N)n4)cc3)c3ccccc23)c1` [compound 331, N-(4-((3-(2-amino-4-pyrimidinyl)-2-pyridinyl)oxy)phenyl)-4-(4-methyl-2-thienyl)-1-phthalazinamine], the pIC50 on AuroraB (given as class symbols) is no less than 7.00. Besides, in experiment [1] (given as class symbols), the pEC50 is no less than 7.00.
